Source: ChEMBL document CHEMBL5365514, “Redefining Cancer Therapy: Toward BCL-XL/BCL-2 Dual Inhibitors with Diminished Platelet Toxicity” (ACS Med Chem Lett, 2023)

Assays:
RS4-11 = assay: Antiproliferative activity against human RS4-11 cells assessed as inhibition of cell growth measured after 48 hrs by MTS assay; type: functional, cell-based; settings: RS4-11, 48 h
MOLT-4 = assay: Antiproliferative activity against human MOLT-4 cells assessed as inhibition of cell growth measured after 48 hrs by MTS assay; type: functional, cell-based; settings: MOLT-4, 48 h

IC50 (RS4-11)	IC50 (MOLT-4)	Compound
< 20 nM	< 20 nM	Cc1ncsc1-c1ccc([C@H](C)NC(=O)[C@@H]2C[C@@H](O)CN2C(=O)[C@@H](NC(=O)CCCCC(=O)N2CCN(C3CCN(C[C@]4(C)CCC(c5ccc(Cl)cc5)=C(CN5CCN(c6ccc(C(=O)NS(=O)(=O)c7ccc(N[C@H](CCN8CCCOCC8)CSc8ccccc8)c(S(=O)(=O)C(F)(F)F)c7)cc6)CC5)C4)CC3)CC2)C(C)(C)C)cc1
< 20 nM	< 20 nM	Cc1ncsc1-c1ccc([C@H](C)NC(=O)[C@@H]2C[C@@H](O)CN2C(=O)[C@@H](NC(=O)CN(C)CC(=O)N2CCC(C3CCN(C[C@]4(C)CCC(c5ccc(Cl)cc5)=C(CN5CCN(c6ccc(C(=O)NS(=O)(=O)c7ccc(N[C@H](CCN8CCCOCC8)CSc8ccccc8)c(S(=O)(=O)C(F)(F)F)c7)cc6)CC5)C4)CC3)CC2)C(C)(C)C)cc1
< 20 nM	< 20 nM	Cc1ncsc1-c1ccc([C@H](C)NC(=O)[C@@H]2C[C@@H](O)CN2C(=O)[C@@H](NC(=O)CN(C)CCC(=O)N2CCC(C3CCN(C[C@]4(C)CCC(c5ccc(Cl)cc5)=C(CN5CCN(c6ccc(C(=O)NS(=O)(=O)c7ccc(N[C@H](CCN8CCCOCC8)CSc8ccccc8)c(S(=O)(=O)C(F)(F)F)c7)cc6)CC5)C4)CC3)CC2)C(C)(C)C)cc1
